Columns and labels:
rat [1] = conditions: Prenatal developmental toxicity study; wistar; Oral; Feed; dose end: 21 GD; group: maternal; systemic / in life observation / food consumption / food consumption + systemic / in life observation / water consumption / water …
dog [2] = conditions: Chronic toxicity, beagle, Oral, Capsule, dose end: 12 month, group: systemic
rat [3] = conditions: Subchronic oral toxicity in rodents, wistar, Feed, dose end: 90 day, group: systemic
rat [4] = conditions: Prenatal developmental toxicity study, wistar, Oral, Gavage/Intubation, dose end: 19 GD
rat [5] = conditions: Combined chronic toxicity/carcinogenicity; wistar; Oral; Feed; dose end: 104 week; group: systemic; systemic / in life observation / body weight / body weight + systemic / in life observation / body weight / body weight gain + systemic / …
dog [6] = conditions: Subchronic oral toxicity in nonrodent, beagle, Feed, dose end: 52 week, group: systemic, systemic / clinical chemistry / albumin / albumin + systemic / clinical chemistry / cholesterol / cholesterol + systemic / clinical …
rabbit = conditions: Prenatal developmental toxicity study, himalayan, Oral, Gavage/Intubation, dose end: 28 GD
rat [7] = conditions: Subchronic oral toxicity in rodents, wistar, Feed, dose end: 3 month
mouse = conditions: Subchronic oral toxicity in rodents, b6c3f1, Feed, dose end: 91 day, group: systemic
rat [8] = conditions: Multigenerational reproductive toxicity study, wistar (Chbb = THOM-SPF), Oral, Feed, dose end: 1 generation
[9] = systemic / in life observation / clinical signs / abnormal gait + systemic / in life observation / clinical signs / ataxia + systemic / in …
[10] = systemic / in life observation / clinical signs / abnormal gait + systemic / in life observation / clinical signs / convulsions
[11] = systemic / in life observation / body weight / body weight gain + systemic / in life observation / food consumption / food consumption + …
[12] = group: developmental, developmental / developmental malformation / bone / cervical + developmental / developmental malformation / kidney / dilated renal pelvis
[13] = group: maternal, systemic / in life observation / body weight / body weight + systemic / in life observation / body weight / body weight gain + systemic / in…
[14] = group: developmental, developmental / developmental malformation / bone / absent
[15] = group: maternal, reproductive / reproductive performance / postimplantation loss / postimplantation loss + reproductive / reproductive performance / …
[16] = group: maternal, systemic / in life observation / body weight / body weight gain + systemic / in life observation / food consumption / food consumption + …
[17] = group: cholinesterase, cholinesterase / cholinesterase / cholinesterase / cholinesterase (che)
[18] = group: systemic, systemic / in life observation / body weight / body weight + systemic / in life observation / body weight / body weight gain + systemic / in…
[19] = systemic / clinical chemistry / triglycerides / triglycerides + systemic / clinical chemistry / urea nitrogen / urea + systemic / in life …
[20] = systemic / pathology microscopic / stomach / erosion
[21] = group: offspring, systemic / in life observation / body weight / offspring (pup) weight
[22] = group: parental, systemic / in life observation / body weight / body weight + systemic / in life observation / body weight / body weight gain + systemic / in…

OC[C@H]1O[C@@H]2O[C@H]3[C@H](O)[C@@H](O)[C@@H](O[C@H]4[C@H](O)[C@@H](O)[C@@H](O[C@H]5[C@H](O)[C@@H](O)[C@@H](O[C@H]6[C@H](O)[C@@H](O)[C@@H](O[C@H]7[C@H](O)[C@@H](O)[C@@H](O[C@H]1[C@H](O)[C@H]2O)O[C@@H]7CO)O[C@@H]6CO)O[C@@H]5CO)O[C@@H]4CO)O[C@@H]3CO [alpha-Cyclodextrin]
LEL (rat [1]): 13.2 mg/kg/day | LOAEL (rat [1]): > 13.2 mg/kg/day | NEL (rat [1]): 6.5 mg/kg/day | NOAEL (rat [1]): ≥ 13.2 mg/kg/day

CC1(C)[C@H](/C=C(\Cl)C(F)(F)F)[C@@H]1C(=O)O[C@@H](C#N)c1cccc(Oc2ccccc2)c1 [lambda-Cyhalothrin]
NEL (dog [2]; [9]): 0.1 mg/kg/day | NOAEL (dog [2]; [9]): 0.1 mg/kg/day | LEL (dog [2]; [10]): 0.5 mg/kg/day | LOAEL (dog [2]; [10]): 0.5 mg/kg/day | LEL (rat [3]; systemic / clinical chemistry / aminopyrine-n-demethylase / aminopyrine-n-demethylase + systemic / organ weight / liver / absolute): 2.5 mg/kg/day | LOAEL (rat [3]; [11]): 12.5 mg/kg/day | NEL (rat [3]; [11]): 0.5 mg/kg/day | NOAEL (rat [3]; [11]): 2.5 mg/kg/day

COC(=O)N(OC)c1ccccc1COc1ccn(-c2ccc(Cl)cc2)n1 [Pyraclostrobin]
LEL (rat [4]; [12]): 50 mg/kg/day | LOAEL (rat [4]; [12]): 50 mg/kg/day | NEL (rat [4]; [12]): 25 mg/kg/day | NOAEL (rat [4]; [12]): 25 mg/kg/day | LEL (rat [4]; [13]): 25 mg/kg/day | LOAEL (rat [4]; [13]): 25 mg/kg/day | NEL (rat [4]; [13]): 10 mg/kg/day | NOAEL (rat [4]; [13]): 10 mg/kg/day | LEL (rat [5]): 9.2 mg/kg/day | LOAEL (rat [5]): 9.2 mg/kg/day | NEL (rat [5]): 3.4 mg/kg/day | NOAEL (rat [5]): 3.4 mg/kg/day | LEL (dog [6]): 10.8 mg/kg/day | LOAEL (dog [6]): 10.8 mg/kg/day | NEL (dog [6]): 5.4 mg/kg/day | NOAEL (dog [6]): 5.4 mg/kg/day | LEL (rabbit; [14]): 20 mg/kg/day | LOAEL (rabbit; [14]): > 20 mg/kg/day | NEL (rabbit; [14]): 10 mg/kg/day | NOAEL (rabbit; [14]): ≥ 20 mg/kg/day | LOAEL (rabbit; [15]): 10 mg/kg/day | NOAEL (rabbit; [15]): 5 mg/kg/day | LEL (rabbit; [16]): 5 mg/kg/day | NEL (rabbit; [16]): < 5 mg/kg/day | LEL (rat [7]; [17]): 79.7 mg/kg/day | LOAEL (rat [7]; [17]): > 119 mg/kg/day | NEL (rat [7]; [17]): 40.8 mg/kg/day | NOAEL (rat [7]; [17]): ≥ 119 mg/kg/day | LOAEL (rat [7]; [18]): 34.7 mg/kg/day | NEL (rat [7]; [18]): 3.5 mg/kg/day | NOAEL (rat [7]; [18]): 10.7 mg/kg/day | LEL (rat [7]; group: systemic, systemic / pathology microscopic / spleen / histiocytosis): 10.7 mg/kg/day | LOAEL (mouse; [19]): 30.4 mg/kg/day | NOAEL (mouse; [19]): 9.2 mg/kg/day | LEL (mouse; [20]): 12.9 mg/kg/day | NEL (mouse; [20]): < 12.9 mg/kg/day | LEL (rat [8]; [21]): 20.5 mg/kg/day | LOAEL (rat [8]; [21]): 20.5 mg/kg/day | NEL (rat [8]; [21]): < 20.5 mg/kg/day | NOAEL (rat [8]; [21]): < 20.5 mg/kg/day | LOAEL (rat [8]; group: parental, systemic / in life observation / body weight / body weight + systemic / in life observation / body weight / body weight gain): 39.9 mg/kg/day | LEL (rat [8]; [22]): 39.9 mg/kg/day | NEL (rat [8]; [22]): 20.5 mg/kg/day | NOAEL (rat [8]; [22]): 20.5 mg/kg/day
